From ChEMBL document CHEMBL1201862, “PubChem BioAssay data set” (2004)
“And” between values parts separate entries of the source, which are not always exact repeats. Identical values can stand only once.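 Interpolation was linear, between the two tested concentrations surrounding the appropriate level; five concentrations were tested over 48 hours in 96-well plates. Here, GI50 denotes the concentration required for 50% inhibition of growth.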 The source made the active and inactive calls. Rule as the data show it: active = GI50 up to about 1.1 µM and inactive = higher.

Assays:
Assay in all cases: NCI tumour cell line growth inhibition, 48 h
HOP-62 = tested on: HOP-62
Hs-578T = tested on: Hs-578T
MDA-MB-435 = tested on: MDA-MB-435
OVCAR-5 = tested on: OVCAR-5
SF-268 = tested on: SF-268
SK-OV-3 = tested on: SK-OV-3
SNB-19 = tested on: SNB-19
786-0 = tested on: 786-0
A498 = tested on: A498
A549 = tested on: A549
ACHN = tested on: ACHN
CAKI-1 = tested on: CAKI-1
CCRF-CEM = tested on: CCRF-CEM
COLO 205 = tested on: COLO 205
DU-145 = tested on: DU-145
EKVX = tested on: EKVX
HCC 2998 = tested on: HCC 2998
HCT-116 = tested on: HCT-116
HCT-15 = tested on: HCT-15
HL-60 = tested on: HL-60
HT-29 = tested on: HT-29
IGROV-1 = tested on: IGROV-1
K562 = tested on: K562
KM12 = tested on: KM12
LOX IMVI = tested on: LOX IMVI
M14 = tested on: M14
MCF7 = tested on: MCF7
MDA-MB-231 = tested on: MDA-MB-231
MDA-N = tested on: MDA-N
MOLT-4 = tested on: MOLT-4
Malme-3M = tested on: Malme-3M
NCI-H226 = tested on: NCI-H226
NCI-H23 = tested on: NCI-H23
NCI-H460 = tested on: NCI-H460
NCI-H522 = tested on: NCI-H522
NCI/ADR-RES = tested on: NCI/ADR-RES
OVCAR-3 = tested on: OVCAR-3
OVCAR-4 = tested on: OVCAR-4
OVCAR-8 = tested on: OVCAR-8
PC-3 = tested on: PC-3
RPMI-8226 = tested on: RPMI-8226
RXF 393 = tested on: RXF 393
SF-295 = tested on: SF-295
SF-539 = tested on: SF-539
SK-MEL-28 = tested on: SK-MEL-28
SK-MEL-2 = tested on: SK-MEL-2
SK-MEL-5 = tested on: SK-MEL-5
SN12C = tested on: SN12C
SNB-75 = tested on: SNB-75
SR = tested on: SR
SW-620 = tested on: SW-620
T47D = tested on: T47D
TK-10 = tested on: TK-10
U-251 = tested on: U-251
UACC-257 = tested on: UACC-257
UACC-62 = tested on: UACC-62
UO-31 = tested on: UO-31
HOP-92 = tested on: HOP-92

SMILES: COC(=O)C1=COC(C)C2CN3CCc4c([nH]c5ccccc45)C3CC12 (centres undefined)
- GI50 (HOP-62): > 100 µM (inactive) and 55.1 µM (inactive)
- GI50 (Hs-578T): 49 µM (inactive) and 26 µM (inactive)
- GI50 (MDA-MB-435): 52.1 µM (inactive)
- GI50 (OVCAR-5): > 100 µM (inactive)
- GI50 (SF-268): 54.1 µM (inactive)
- GI50 (SK-OV-3): 58.7 µM (inactive)
- GI50 (SNB-19): 84.5 µM (inactive)

SMILES: CN(C)/C=N/n1c2ccccc2c2ccccc21
- GI50 (786-0): > 100 µM (inactive)
- GI50 (A498): 26.4 µM (inactive)
- GI50 (A549): > 100 µM (inactive)
- GI50 (ACHN): > 100 µM (inactive)
- GI50 (CAKI-1): 3.64 µM (inactive)
- GI50 (CCRF-CEM): > 100 µM (inactive)
- GI50 (COLO 205): 83.6 µM (inactive)
- GI50 (DU-145): > 100 µM (inactive)
- GI50 (EKVX): > 100 µM (inactive)
- GI50 (HCC 2998): > 100 µM (inactive)
- GI50 (HCT-116): > 100 µM (inactive)
- GI50 (HCT-15): > 100 µM
- GI50 (HL-60): > 100 µM (inactive)
- GI50 (HOP-62): > 100 µM (inactive)
- GI50 (HT-29): > 100 µM (inactive)
- GI50 (Hs-578T): 34 µM (inactive)
- GI50 (IGROV-1): > 100 µM (inactive)
- GI50 (K562): > 100 µM (inactive)
- GI50 (KM12): > 100 µM (inactive)
- GI50 (LOX IMVI): > 100 µM (inactive)
- GI50 (M14): > 100 µM (inactive)
- GI50 (MCF7): > 100 µM (inactive)
- GI50 (MDA-MB-231): > 100 µM (inactive)
- GI50 (MDA-MB-435): > 100 µM (inactive)
- GI50 (MDA-N): > 100 µM (inactive)
- GI50 (MOLT-4): 69.8 µM (inactive)
- GI50 (Malme-3M): 50.1 µM (inactive)
- GI50 (NCI-H226): > 100 µM (inactive)
- GI50 (NCI-H23): > 100 µM (inactive)
- GI50 (NCI-H460): > 100 µM (inactive)
- GI50 (NCI-H522): > 100 µM (inactive)
- GI50 (NCI/ADR-RES): > 100 µM (inactive)
- GI50 (OVCAR-3): > 100 µM (inactive)
- GI50 (OVCAR-4): > 100 µM (inactive)
- GI50 (OVCAR-5): > 100 µM (inactive)
- GI50 (OVCAR-8): > 100 µM (inactive)
- GI50 (PC-3): > 100 µM (inactive)
- GI50 (RPMI-8226): > 100 µM (inactive)
- GI50 (RXF 393): > 100 µM (inactive)
- GI50 (SF-268): > 100 µM (inactive)
- GI50 (SF-295): > 100 µM (inactive)
- GI50 (SF-539): > 100 µM (inactive)
- GI50 (SK-MEL-28): > 100 µM (inactive)
- GI50 (SK-MEL-2): > 100 µM (inactive)
- GI50 (SK-MEL-5): > 100 µM (inactive)
- GI50 (SK-OV-3): > 100 µM (inactive)
- GI50 (SN12C): > 100 µM (inactive)
- GI50 (SNB-19): > 100 µM (inactive)
- GI50 (SNB-75): 71.1 µM (inactive)
- GI50 (SR): > 100 µM (inactive)
- GI50 (SW-620): > 100 µM (inactive)
- GI50 (T47D): > 100 µM (inactive)
- GI50 (TK-10): > 100 µM (inactive)
- GI50 (U-251): > 100 µM (inactive)
- GI50 (UACC-257): > 100 µM (inactive)
- GI50 (UACC-62): > 100 µM (inactive)
- GI50 (UO-31): > 100 µM (inactive)

SMILES: COC(=O)[C@@H]1CN(C(C)=O)C(=O)N1C(=O)OCc1ccccc1
- GI50 (786-0): > 100 µM (inactive)
- GI50 (A498): > 100 µM (inactive)
- GI50 (A549): > 100 µM (inactive)
- GI50 (ACHN): > 100 µM (inactive)
- GI50 (CAKI-1): > 100 µM (inactive)
- GI50 (CCRF-CEM): > 100 µM (inactive)
- GI50 (COLO 205): > 100 µM (inactive)
- GI50 (DU-145): > 100 µM (inactive)
- GI50 (EKVX): > 100 µM (inactive)
- GI50 (HCC 2998): > 100 µM (inactive)
- GI50 (HCT-116): > 100 µM (inactive)
- GI50 (HCT-15): > 100 µM
- GI50 (HL-60): > 100 µM (inactive)
- GI50 (HOP-62): > 100 µM (inactive)
- GI50 (HOP-92): > 100 µM (inactive)
- GI50 (HT-29): > 100 µM (inactive)
- GI50 (Hs-578T): > 100 µM (inactive)
- GI50 (IGROV-1): > 100 µM (inactive)
- GI50 (K562): > 100 µM (inactive)
- GI50 (KM12): > 100 µM (inactive)
- GI50 (LOX IMVI): > 100 µM (inactive)
- GI50 (M14): > 100 µM (inactive)
- GI50 (MDA-MB-231): > 100 µM (inactive)
- GI50 (MDA-MB-435): > 100 µM (inactive)
- GI50 (MDA-N): > 100 µM (inactive)
- GI50 (MOLT-4): > 100 µM (inactive)
- GI50 (Malme-3M): > 100 µM (inactive)
- GI50 (NCI-H226): > 100 µM (inactive)
- GI50 (NCI-H23): > 100 µM (inactive)
- GI50 (NCI-H460): > 100 µM (inactive)
- GI50 (NCI-H522): > 100 µM (inactive)
- GI50 (NCI/ADR-RES): > 100 µM (inactive)
- GI50 (OVCAR-3): > 100 µM (inactive)
- GI50 (OVCAR-4): > 100 µM (inactive)
- GI50 (OVCAR-5): > 100 µM (inactive)
- GI50 (OVCAR-8): > 100 µM (inactive)
- GI50 (PC-3): > 100 µM (inactive)
- GI50 (RPMI-8226): > 100 µM (inactive)
- GI50 (RXF 393): > 100 µM (inactive)
- GI50 (SF-268): 59.2 µM (inactive)
- GI50 (SF-295): > 100 µM (inactive)
- GI50 (SF-539): > 100 µM (inactive)
- GI50 (SK-MEL-28): > 100 µM (inactive)
- GI50 (SK-MEL-2): > 100 µM (inactive)
- GI50 (SK-MEL-5): > 100 µM (inactive)
- GI50 (SK-OV-3): > 100 µM (inactive)
- GI50 (SN12C): > 100 µM (inactive)
- GI50 (SNB-19): > 100 µM (inactive)
- GI50 (SR): > 100 µM (inactive)
- GI50 (SW-620): > 100 µM (inactive)
- GI50 (T47D): > 100 µM (inactive)
- GI50 (TK-10): > 100 µM (inactive)
- GI50 (U-251): > 100 µM (inactive)
- GI50 (UACC-257): > 100 µM (inactive)
- GI50 (UO-31): > 100 µM (inactive)
